SMILES strings stand for the structures. Counter-ions that a name gives are not always drawn.

In the experiment the target is T1, guinea-pig B2 receptor (Cavia porcellus, UniProt O70526).
T1 construct: Ileum segments are isolated from male guinea-pigs; tissue Iffa Credo, l'Arbresle, France (animals); host or cells: ileum membranes of male Dunkin-Hartley guinea-pigs
T1 sequence (O70526 1-372): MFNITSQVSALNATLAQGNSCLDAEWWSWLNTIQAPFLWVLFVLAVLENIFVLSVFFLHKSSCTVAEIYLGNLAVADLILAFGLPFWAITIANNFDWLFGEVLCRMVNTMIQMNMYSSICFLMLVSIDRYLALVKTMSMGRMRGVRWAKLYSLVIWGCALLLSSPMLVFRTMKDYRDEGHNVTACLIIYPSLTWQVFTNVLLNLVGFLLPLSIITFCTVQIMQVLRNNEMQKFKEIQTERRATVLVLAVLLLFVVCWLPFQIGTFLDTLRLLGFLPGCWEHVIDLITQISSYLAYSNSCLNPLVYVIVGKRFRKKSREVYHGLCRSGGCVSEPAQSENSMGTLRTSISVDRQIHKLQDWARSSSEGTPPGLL
Description: Inhibition of [3H]-bradykinin binding to guinea-pig ileum membranes. Particulars: test compound at 10^-6 M, [3H]-bradykinin 120 pM, 90 min at 20° C., read-out: Activity (percentage inhibition of the binding of [3H]-bradykinin). As to the method:
The following pharmacological test is used: Ileum segments are isolated from male guinea-pigs [of the Dunkin-Hartley strain (Iffa Credo, l'Arbresle, France)] and ground in the following TES buffer: TES 25 mM, 1,10-phenanthroline 1 mM (pH 6.8), bacitracin 140 μg/ml, BSA 1 g/l. The membranes are then isolated by centrifugation (18,000 rpm; 20 min; 4° C.). The binding studies are carried out in this TES buffer using [^3 H]-bradykinin (120 pM) and 50 μg of membrane protein per test (final volume 500 μl) with an equilibrium time of 90 min at 20° C. The percentage inhibition of the binding of [^3 H]-bradykinin is then determined in the presence of one of the test compounds according to the invention at a concentration of 10^-6 M.
The results obtained from these tests (shown as "activity") are collated in Table I below with reference to the Examples given in the description. In this Table, Pos indicates the position of the amidine group on the aromatic (or heteroaromatic) ring relative to the group B; in the "Salt" column, Ch1 denotes that the compound is in the form of the hydrochloric acid salt and Ms denotes that it is in the form of the methanesulfonic acid salt.
Broadly, the inhibition is the drop in the measured response relative to a control, in per cent. In the case of `Cc1cc(C)c2cccc(OCc3c(Cl)ccc(S(=O)(=O)N4CCC[C@H]4C(=O)NCCCN(C)C(=O)c4ccc(C(=N)N)cc4)c3Cl)c2n1` [Example 16, 1-[[3-[(2,4-Dimethylquinolin-8-yl)oxymethyl]-2,4-dichlorophenyl]sulfonyl]-N-[3-[[methyl]-[[4(aminoiminomethyl)phenyl]carbonyl]amino]propyl]-2(S)-pyrrolidinecarboxamide dihydrochloride], the inhibition at 1 µM was found to be 100%.

In the case of `Cc1cc(C)c2cccc(OCc3c(Cl)ccc(S(=O)(=O)N4CCC[C@H]4C(=O)NCCCNC(=O)Cc4ccc(C(=N)N)cc4)c3Cl)c2n1` [Example 8, 1-[[3-[(2,4-Dimethylquinolin-8-yl)oxymethyl]-2,4-dichlorophenyl]sulfonyl]-N-[-[[2-[4(aminoiminomethyl)phenyl]-1-oxoethyl]amino]propyl]-2(S)-pyrrolidinecarboxamide dihydrochloride], the inhibition at 1 µM was found to be 97.5%.

As for `Cc1cc(C)c2cccc(OCc3c(Cl)ccc(S(=O)(=O)N4CCC[C@H]4C(=O)NCCNC(=O)COc4ccc(C(=N)N)cc4)c3Cl)c2n1` [Example 4, 1-[[3-[(2,4-Dimethylquinolin-8-yl)oxymethyl]-2,4-dichlorophenyl]sulfonyl]-N-[2-[[2-[4(aminoiminomethyl)phenoxy]-1-oxoethyl]amino]ethyl]-2(S)-pyrrolidinecarboxamide dihydrochloride], the inhibition at 1 µM was 95.5%.

For the compound `Cc1cc(C)c2cccc(OCc3c(Cl)ccc(S(=O)(=O)N4CCC[C@H]4C(=O)NCCCCNC(=O)c4ccc(C(=N)N)cc4)c3Cl)c2n1` [Example 19, 1-[[3-[(2,4-Dimethylquinolin-8-yloxymethyl]-2,4-dichlorophenyl]sulfonyl]-N-[4-[[4-(aminoiminomethyl)phenyl]carbonylamino]butyl]-2(S)-pyrrolidinecarboxamidedihydrochloride], the inhibition at 1 µM came out at 98%.

`Cc1cc(C)c2cccc(OCc3c(Cl)ccc(S(=O)(=O)N4CCC[C@H]4C(=O)NCCNC(=O)c4ccc(C(=N)N)cc4)c3Cl)c2n1` [Example 2, 1-[[3-[(2,4-Dimethylquinolin-8-yl)oxymethyl]-2,4-dichlorophenyl]sulfonyl]-N-[2-[[4-(aminoiminomethyl)phenyl]carbonylamino]ethyl]-2(S)-pyrrolidine-carboxamide dihydrochloride]: the inhibition at 1 µM came to 92%.

Regarding `CCN(CCCNC(=O)[C@@H]1CCCN1S(=O)(=O)c1ccc(Cl)c(COc2cccc3c(C)cc(C)nc23)c1Cl)C(=O)c1ccc(C(=N)N)cc1` [Example 14, 1-[[3-[(2,4-Dimethylquinolin-8-yl)oxymethyl]-2,4-dichlorophenyl]sulfonyl]-N-3-[[ethyl]-[[4-(aminoiminomethyl)phenyl]carbonyl]amino]propyl]-2(S)-pyrrolidine carboxamide dihydrochloride], the inhibition at 1 µM stood at 97%.

For the compound `Cc1cc(C)c2cccc(OCc3c(Cl)ccc(S(=O)(=O)N4CCC[C@H]4C(=O)NCCCNC(=O)c4ccc(C(=N)N)cc4)c3Cl)c2n1` [Example 6, 1-[[3-[(2,4-Dimethylquinolin-8-yl)oxymethyl]-2,4-dichlorophenyl]sulfonyl]-N-[3-[[4-(aminoiminomethyl)phenyl]carbonylamino]propyl]-2(S)-pyrrolidine-carboxamide dihydrochloride], the inhibition at 1 µM was determined as 99%.

On to `Cc1cc(C)c2cccc(OCc3c(Cl)ccc(S(=O)(=O)N4CCC[C@H]4C(=O)NCCCNC(=O)COc4ccc(C(=N)N)cc4)c3Cl)c2n1` [Example 10, 1-[[3-[(2,4-Dimethylquinolin-8-yl)oxymethyl]-2,4-dichlorophenyl]sulfonyl]-N-[3-[[2-[4-(aminoiminomethyl)phenoxy]-1-oxoethyl]amino]propyl]-2(S)-pyrrolidinecarboxamide dihydrochloride], for which the inhibition at 1 µM came to 98.8%.

Turning to `Cc1cc(C)c2cccc(OCc3c(Cl)ccc(S(=O)(=O)N4CCC[C@H]4C(=O)NCCCCCNC(=O)c4ccc(C(=N)N)cc4)c3Cl)c2n1` [Example 21, 1-[[3-[(2,4-Dimethylquinolin-8-yl)oxymethyl]-2,4-dichlorophenyl]sulfonyl]-N-[5-[[4-(aminoiminomethyl)phenyl]carbonylamino]pentyl]-2(S)-pyrrolidinecarboxamide dihydrochloride], the inhibition at 1 µM is 100%.

The values above are taken from patent publication US6063791A, “N-benzenesulfonyl-L-proline derivatives, method for preparing and therapeutic use” (Fournier Industrie et Sante, priority 1996, dated 2000).
